Source: patent US20260285850A1, “SUBSTITUTED OXAZOLIDINONES AND IMIDAZOLINONES AS HERBICIDES” (FMC CORPORATION, priority 2023, published 2026)

What was measured:
Type in all cases: in vivo
[1] = test system: galium (catchweed bedstraw, Galium aparine); experiment: Test A postemergence application, visual injury rating 0-100
Summary of the method: (§1)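 Plants in a loam and sand soil blend were treated with each test chemical, in a non-phytotoxic solvent system including surfactant, either sprayed on seeded soil before emergence or applied after emergence at the one- to two-leaf stage. Ten days later in the greenhouse, plants were compared with untreated controls and visually rated from 0 (no effect) to 100 (complete control).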

[2] = test system: palmer (palmer amaranth, palmer pigweed, Amaranthus palmeri); experiment: as above
Summary of the method: as §1

[3] = test system: soybean (Glycine max); experiment: as above
Summary of the method: as §1

[4] = test system: kochia (Bassia scoparia); experiment: as above
Summary of the method: as §1

[5] = test system: barnyardgrass (Echinochloa crus-galli); experiment: as above
Summary of the method: as §1

[6] = test system: ragweed (common ragweed, Ambrosia artemisiifolia); experiment: as above
Summary of the method: as §1

[7] = test system: ryegrass, Italian (italian ryegrass, Lolium multiflorum); experiment: as above
Summary of the method: as §1

[8] = test system: wheat (Triticum aestivum); experiment: as above
Summary of the method: as §1

[9] = test system: horseweed (Erigeron canadensis); experiment: as above
Summary of the method: as §1

[10] = test system: corn (Zea mays); experiment: as above
Summary of the method: as §1

[11] = test system: blackgrass (Alopecurus myosuroides); experiment: as above
Summary of the method: as §1

[12] = test system: oat, wild (wild oat, Avena fatua); experiment: as above
Summary of the method: as §1

[13] = test system: green foxtail (Setaria viridis); experiment: as above
Summary of the method: as §1

[14] = test system: palmer (palmer amaranth, palmer pigweed, Amaranthus palmeri); experiment: Test A preemergence soil spray, visual injury rating 0-100; settings: 10 days
Summary of the method: as §1

[15] = test system: soybean (Glycine max); experiment: as above; settings: 10 days
Summary of the method: as §1

[16] = test system: kochia (Bassia scoparia); experiment: as above; settings: 10 days
Summary of the method: as §1

[17] = test system: barnyardgrass (Echinochloa crus-galli); experiment: as above; settings: 10 days
Summary of the method: as §1

[18] = test system: ragweed (common ragweed, Ambrosia artemisiifolia); experiment: as above; settings: 10 days
Summary of the method: as §1

[19] = test system: ryegrass, Italian (italian ryegrass, Lolium multiflorum); experiment: as above; settings: 10 days
Summary of the method: as §1

[20] = test system: wheat (Triticum aestivum); experiment: as above; settings: 10 days
Summary of the method: as §1

[21] = test system: corn (Zea mays); experiment: as above; settings: 10 days
Summary of the method: as §1

[22] = test system: blackgrass (Alopecurus myosuroides); experiment: as above; settings: 10 days
Summary of the method: as §1

[23] = test system: oat, wild (wild oat, Avena fatua); experiment: as above; settings: 10 days
Summary of the method: as §1

[24] = test system: green foxtail (Setaria viridis); experiment: as above; settings: 10 days
Summary of the method: as §1

[25] = test system: rice (Oryza sativa); experiment: Test B flooded paddy test, visual plant response rating 0-100; settings: 250 g ai/ha, Flood, applied to paddy water, evaluated after 13 days
Summary of the method: (§2)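 Greenhouse, 13 d. Seedlings at 2-leaf stage, pots flooded to 3 cm, compound delivered into floodwater, water level held constant. Evaluated visually relative to controls.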

[26] = test system: sedge, umbrella (small-flower umbrella sedge, Cyperus difformis); experiment: as above; settings: 250 g ai/ha, Flood, applied to paddy water, evaluated after 13 days
Summary of the method: as §2

[27] = test system: barnyardgrass (Echinochloa crusgalli); experiment: as above; settings: 250 g ai/ha, Flood, applied to paddy water, evaluated after 13 days
Summary of the method: as §2

[28] = test system: ducksalad (Heteranthera limosa); experiment: as above; settings: 250 g ai/ha, Flood, applied to paddy water, evaluated after 13 days
Summary of the method: as §2

[29] = 62 g ai/ha, postemergence, 10 days, 0 = no effect, 100 = complete control
[30] = Postemergence, 16 g ai/ha, greenhouse 10 days, 0 no effect, 100 complete control
[31] = 62 g ai/ha, 0 = no effect, 100 = complete control

COC(=O)C1CC(NC(=O)C2(C)CN(c3cc(F)cc(F)c3)C(=O)O2)C1 (stereo not shown) [Compound 117]
40: Soybean plant response rating (0 to 100 scale) [3, 30] | Ragweed plant response rating (0-100) [6, 29] | Oat, Wild plant response rating ([23]; 16 g ai/ha, 0 to 100 scale)
50: Galium plant response rating (0 to 100 scale) [1, 30] | Wheat plant response rating (0 to 100 scale) [8, 30]
20: Wheat plant response rating (0-100) [20, 31]
60: Galium plant response rating (0-100) [1, 29] | Soybean plant response rating (0-100) [3, 29] | Ryegrass, Italian plant response rating (0 to 100 scale) [7, 30] | Blackgrass plant response rating (0-100) [22, 31]
0: Pigweed, Palmer plant response rating (0 to 100 scale) [2, 30] | Kochia plant response rating (0-100) [4, 29] | Kochia plant response rating (0 to 100 scale) [4, 30] | Barnyardgrass plant response rating (0 to 100 scale) [5, 30] | Ragweed plant response rating (0 to 100 scale) [6, 30] | Horseweed plant response rating (0-100) [9, 29] | Horseweed plant response rating (0 to 100 scale) [9, 30] | Corn plant response rating (0 to 100 scale) [10, 30] | Pigweed, Palmer plant response rating ([14]; 16 g ai/ha, 0 to 100 scale) | Soybean plant response rating ([15]; 16 g ai/ha, 0 to 100 scale) | Soybean plant response rating (0-100) [15, 31] | Kochia plant response rating ([16]; 16 g ai/ha, 0 to 100 scale) | Kochia plant response rating (0-100) [16, 31] | Barnyardgrass plant response rating ([17]; 16 g ai/ha, 0 to 100 scale) | Ragweed plant response rating ([18]; 16 g ai/ha, 0 to 100 scale) | Ragweed plant response rating (0-100) [18, 31] | Ryegrass, Italian plant response rating ([19]; 16 g ai/ha, 0 to 100 scale) | Wheat plant response rating ([20]; 16 g ai/ha, 0 to 100 scale) | Corn plant response rating ([21]; 16 g ai/ha, 0 to 100 scale) | Corn plant response rating (0-100) [21, 31] | Foxtail, Green plant response rating ([24]; 16 g ai/ha, 0 to 100 scale) | Plant response rating, Rice (0 to 100 scale, 0 is no effect and 100 is complete control) [25] | Plant response rating, Sedge, Umbrella (0 to 100 scale, 0 is no effect and 100 is complete control) [26] | Plant response rating, Barnyardgrass (0 to 100 scale, 0 is no effect and 100 is complete control) [27] | Plant response rating, Ducksalad (0 to 100 scale, 0 is no effect and 100 is complete control) [28]
80: Ryegrass, Italian plant response rating (0-100) [7, 29] | Oat, Wild plant response rating (0-100) [12, 29] | Foxtail, Green plant response rating (0-100) [24, 31]
90: Wheat plant response rating (0-100) [8, 29] | Blackgrass plant response rating (0-100) [11, 29] | Foxtail, Green plant response rating (0-100) [13, 29] | Oat, Wild plant response rating (0-100) [23, 31]
30: Foxtail, Green plant response rating (0 to 100 scale) [13, 30] | Blackgrass plant response rating ([22]; 16 g ai/ha, 0 to 100 scale)
70: Barnyardgrass plant response rating (0-100) [5, 29] | Blackgrass plant response rating (0 to 100 scale) [11, 30] | Ryegrass, Italian plant response rating (0-100) [19, 31]
10: Pigweed, Palmer plant response rating (0-100) [2, 29] | Oat, Wild plant response rating (0 to 100 scale) [12, 30] | Pigweed, Palmer plant response rating (0-100) [14, 31] | Barnyardgrass plant response rating (0-100) [17, 31]
100: Corn plant response rating (0-100) [10, 29]
